Assay results reported in patent publication US9193995B2, “Compositions for detecting human interferon-alpha subtypes and methods of use” (UNITED STATES DEPARTMENT OF HEALTH AND HUMAN SERVICES, priority 2008, dated 2015).

Legend:
Test in all cases: IFN subtype expression in response to TLR ligands (RT-PCR)
Format in all cases: cell-based, Human
myeloid DC (mDC) = conditions: 10 uM Imiquimod, 6.5 ug/ml CpG A, 1, 4 or 24 hours, varied with donor, FIG. 9E
Excerpt: (§1) To test whether expression of IFN subtypes varied among different cell types, the primers of the invention were used to determine expression patterns of IFN-alpha, IFN-lambda, IFN-beta and IFN-gamma in response to ligands of TLR 3 (poly I:C), 4 (LPS), 7 (imiquimod) and 9 (CpG). LPS (E. coli O111:B4), imiquimod, and poly I:C were purchased from EMD Chemicals (Gibbstown, N.J.). CpG types D35, K, and C, and control D35 GpC oligonucleotides were synthesized by the Food and Drug Administration Center for Biologics Evaluation and Research Facility for Biotechnology Resources. For both the D35 CpG and control GpC, the two bases at the 5′ and 3′ ends had nuclease-resistant phosphorothioate linkages.
(§2) Human peripheral blood monocytes, myeloid DC (mDC), plasmacytoid DC (pDC), and B cells were isolated. Elutriated monocytes and lymphocytes were obtained from the NIH Clinical Center Department of Transfusion Medicine (Bethesda, Md.) and the preparation was subjected to Ficoll-Hypaque (Sigma-Aldrich, St. Louis, Mo.) density centrifugation. Monocytes, mDC and pDC were purified with magnetic beads specific for CD14, CD1c, and CD303, respectively using an AutoMACS magnetic cell sorter (Miltenyi Biotec, Auburn, Calif.). […]

plasmacytoid DC (pDC) = conditions: 10 uM Imiquimod, 6.5 ug/ml CpG A, 1, 4 or 24 hours, much higher levels than mDC
Excerpt: as §1, §2

monocytes, MDM and MDDC = conditions: 25 ug/ml Poly I:C, 10 ng/ml LPS, 1, 4 or 24 hours, FIG. 9A-C
Excerpt: as §1, §2

Row | Molecule | IFN expression in response to TLR ligand (myeloid DC (mDC)) | IFN expression in response to TLR ligand (plasmacytoid DC (pDC)) | IFN expression in response to TLR ligand (monocytes, MDM and MDDC)
1 | CC(C)Cn1cnc2c(N)nc3ccccc3c21 [imiquimod] | expressed most IFN-a subtypes | expressed most IFN | –
2 | poly I:C | – | – | expressed high levels of IFN-b, IFN-g, IFN-11, and to a lesser extent, IFN-l2 and IFN-a1
